Measurements from patent US12715851B2, “4′-substituted analogues of fisetin and their use in the treatment of cancer” (Stellenbosch University, priority 2020, dated 2026).
Entries after “also recorded” stand apart in the source; their conditions may differ.

Assays:
H1299 lung cancer cells = experiment: Trypan blue cell exclusion assay, cell proliferation and death; assay type: cell-based; settings: Homo sapiens, NCI-H1299, H1299, 48 h, read-out: IC50 concentration
Method: (§1) To evaluate the effect of Fisetin analogues 3a, 3c and 3e on cell proliferation and death of human lung cancer cells, trypan blue cell exclusion assays were performed. A549 and H1299 cancer cells were treated with different concentrations of three selected Fisetin analogues for 48 h. The Fisetin analogues decreased the viability of cells and caused cell death in both the cell lines in a concentration dependent fashion. A549 and H1299 cells were treated with 5, 10 and 20 μM of Fisetin analogues for 48 h. All three analogues decreased cell proliferation and induced cell death.

A549 cells [1] = experiment: as above; assay type: cell-based; settings: Homo sapiens, A549, 48 h, read-out: IC50 concentration
Method: as §1

A549 cells [2] = experiment: Western blot of signalling, cell cycle and apoptosis markers; assay type: cell-based, human; settings: IC50 concentration and 20 μM
Description: Similarly, in H1299 cells analogue 3a induced a 11.7 to 14.9% cell death (FIG. 4D right) compared to 3.8% in control cells. Analogue 3c (FIG. 4E right) and analogue 3e (FIG. 4F right) induced cell death of 8.2 to 15.1% and 8.8 to 16.6% respectively. For western blot experiments, two concentrations were used, i.e. the IC50 concentration and the next higher concentration utilized for cell proliferation for each cell line.
The expression of pro-oncogenic signalling molecules, which are involved in proliferation and survival of cancer cells, were evaluated.
The effect of the Fisetin analogues on molecular markers of apoptosis was assessed.

[3] = system: lipid peroxidation (MDA formation); experiment: Hepatotoxicity: lipid peroxidation assay on microsomal liver fraction (TBARS); assay type: in vivo, swiss albino mice; settings: microsomal liver fraction of treated mice
Method: Hepatotoxicity is considered to be one of the major challenges for drug development schemes. The liver is the primary organ for the metabolism or biotransformation of a given drug. To assess the hepatotoxicity of these compounds, the effects of Fisetin and analogue 3c on various hepatic enzymes was assessed.
A lipid peroxidation assay was performed on microsomal liver fraction and determined in terms of TBARS formation. […] The modulatory effects of Fisetin and analogue 3c were determined on the specific activities of cytochrome b5 reductase (Cytb5R) and cytochrome P450 reductase (CytP450R), phase I enzyme of xenobiotic metabolism. Fisetin and analogue 3c caused reduction in the specific activity of cytochrome b5 reductase. Fisetin decreased Cytb5R specific activity by 66% whereas analogue 3c (50 mg/kg) caused a 36% reduction in specific activity (FIG. 7F). An increase in specific activity of CytP450R by Fisetin and analogue 3c was observed. Fisetin and analogue 3c (50 mg/kg) increased the specific activity by 15% and 13%, respectively (FIG. 7G). Next, the specific activities of phase II enzymes, glutathione S-transferase (GST) and reduced glutathione (GSH) were measured. […] Fisetin and analogue 3c (50 mg/kg) caused a decrease in specific activity of GSH by 34% and 7%, respectively (FIG. 7I). […] These analogues are therefore likely to be effective and safe phytochemicals.

[4] = Acute toxicity, fed orally for two weeks; assay type: in vivo; settings: Fisetin 50 mg/kg, 3c 25 and 50 mg/kg body weight
Method: Fisetin analogue 3c was used to assess the potential toxicity of these analogues in a pre-clinical model. To test the acute toxicity, Fisetin (50 mg/kg body weight), analogue 3c (25 mg/kg and 50 mg/kg body weight), and vehicle control (5% DMSO, 45% PEG-300 and 50% saline) was fed orally for two weeks. Abnormal clinical signs such as decreased motor activity, sensory reflection, body weight, food intake, and water intake were monitored during the treatment period. An increase in body weight was observed among all groups throughout the treatment period (FIG. 7A). […] This variation could be due to consistent frequency of dosage.

O=c1c(O)c(-c2ccc(Br)cc2)oc2cc(O)ccc12 [analogue 3c, 4′-Bromo-3,7-dihydroxyflavone]
IC50 (H1299 lung cancer cells): 5.4 µM | IC50 (A549 cells [1]): 12.1 µM | cleaved caspase-3 (A549 cells [2]): IC50 concentration of analogue 3c also increased cleaved caspase-3 to a significant amount; also recorded: higher concentration of analogue 3c and both the concentrations of analogue 3e increased the cleaved caspase-3 marginally | expression of p21 (A549 cells [2]): increased the p21 expression significantly at higher concentration | expression of phospho Cdc-2 (A549 cells [2]): IC50 concentration decreased the expression to some extent; also recorded: the higher concentrations decreased the phospho-Cdc-2 expression significantly | expression of phospho-EGFR (A549 cells [2]): minimally affected except for higher concentration of analogue 3c | expression of phospho-Erk1/2 (A549 cells [2]): decreased the expression of phospho-Erk1/2 significantly at both the concentrations | expression of pro-apoptotic protein Bax (A549 cells [2]): increased the expression of Bax with much higher potential | total Stat-3 expression (A549 cells [2]): not affected | total form of Akt (A549 cells [2]): slightly downregulated | total form of Erk1/2 (A549 cells [2]): not affected except for 3c in the higher concentration | MDA formation (TBARS) [3]: No significant change | toxicity in mice, in words [4]: well tolerated in animal models; also recorded: does not show toxicity; also recorded: did not cause toxicity
